Test results: patent US11180474B2 (BRISTOL-MYERS SQUIBB COMPANY, priority 2016, dated 2021)

Tests used:
human TLR8 = molecular target: T1, human TLR8 (Homo sapiens, UniProt Q9NR97); test: TLR8 inhibition reporter assay (HEK-Blue cells, SEAP reporter, R848 stimulation); type: cell-based; conditions: HEK-Blue cells overexpressing human TLR8, R848 15.9 μM
T1 construct: host or cells: HEK-Blue cells
T1 sequence (Q9NR97 27-1041): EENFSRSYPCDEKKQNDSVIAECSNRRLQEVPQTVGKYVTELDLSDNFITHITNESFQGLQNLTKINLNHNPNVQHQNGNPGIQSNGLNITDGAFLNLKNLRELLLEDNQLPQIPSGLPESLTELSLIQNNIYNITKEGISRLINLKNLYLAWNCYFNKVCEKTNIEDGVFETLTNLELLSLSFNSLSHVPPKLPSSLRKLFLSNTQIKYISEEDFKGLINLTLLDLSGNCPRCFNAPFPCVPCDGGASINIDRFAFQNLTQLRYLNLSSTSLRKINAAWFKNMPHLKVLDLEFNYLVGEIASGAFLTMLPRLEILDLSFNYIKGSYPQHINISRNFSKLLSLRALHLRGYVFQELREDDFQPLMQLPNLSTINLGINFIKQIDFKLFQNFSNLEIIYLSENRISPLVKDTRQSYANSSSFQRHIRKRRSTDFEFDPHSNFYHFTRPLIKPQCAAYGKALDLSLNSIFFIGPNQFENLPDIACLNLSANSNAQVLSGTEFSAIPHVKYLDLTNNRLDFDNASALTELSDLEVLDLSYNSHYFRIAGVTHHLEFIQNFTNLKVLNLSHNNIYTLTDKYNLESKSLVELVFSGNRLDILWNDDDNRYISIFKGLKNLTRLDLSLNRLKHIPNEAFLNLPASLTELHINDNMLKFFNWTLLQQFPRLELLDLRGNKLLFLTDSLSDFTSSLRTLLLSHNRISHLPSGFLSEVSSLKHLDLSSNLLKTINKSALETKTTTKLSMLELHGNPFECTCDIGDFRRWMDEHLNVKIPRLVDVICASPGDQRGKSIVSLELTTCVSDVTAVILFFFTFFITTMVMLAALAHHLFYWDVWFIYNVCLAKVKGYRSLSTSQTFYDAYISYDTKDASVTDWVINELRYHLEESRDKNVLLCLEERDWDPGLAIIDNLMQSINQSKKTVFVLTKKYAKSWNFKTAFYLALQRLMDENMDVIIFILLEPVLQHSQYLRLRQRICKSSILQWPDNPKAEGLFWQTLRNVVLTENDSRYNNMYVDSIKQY
Procedure, shortened: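 HEK-Blue reporter cells (15,000/well TLR7, 20,000 TLR8) exposed to compound over 0.05 nM–50 μM, agonist-stimulated (R848 for TLR8, gardiquimod for TLR7), 22 h at 37 °C, 5% CO2. SEAP read with HEK-Blue Detection; % inhibition relative to agonist-plus-DMSO and known-inhibitor controls.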

human TLR9 = molecular target: T2, human TLR9 (Homo sapiens, UniProt Q9NR96); test: TLR9 inhibition reporter assay (HEK-Blue cells, SEAP reporter, ODN2006 stimulation); type: cell-based; conditions: HEK-Blue cells overexpressing human TLR9, ODN2006 5 nM
T2 construct: host or cells: HEK-Blue cells
T2 sequence (Q9NR96 26-1032): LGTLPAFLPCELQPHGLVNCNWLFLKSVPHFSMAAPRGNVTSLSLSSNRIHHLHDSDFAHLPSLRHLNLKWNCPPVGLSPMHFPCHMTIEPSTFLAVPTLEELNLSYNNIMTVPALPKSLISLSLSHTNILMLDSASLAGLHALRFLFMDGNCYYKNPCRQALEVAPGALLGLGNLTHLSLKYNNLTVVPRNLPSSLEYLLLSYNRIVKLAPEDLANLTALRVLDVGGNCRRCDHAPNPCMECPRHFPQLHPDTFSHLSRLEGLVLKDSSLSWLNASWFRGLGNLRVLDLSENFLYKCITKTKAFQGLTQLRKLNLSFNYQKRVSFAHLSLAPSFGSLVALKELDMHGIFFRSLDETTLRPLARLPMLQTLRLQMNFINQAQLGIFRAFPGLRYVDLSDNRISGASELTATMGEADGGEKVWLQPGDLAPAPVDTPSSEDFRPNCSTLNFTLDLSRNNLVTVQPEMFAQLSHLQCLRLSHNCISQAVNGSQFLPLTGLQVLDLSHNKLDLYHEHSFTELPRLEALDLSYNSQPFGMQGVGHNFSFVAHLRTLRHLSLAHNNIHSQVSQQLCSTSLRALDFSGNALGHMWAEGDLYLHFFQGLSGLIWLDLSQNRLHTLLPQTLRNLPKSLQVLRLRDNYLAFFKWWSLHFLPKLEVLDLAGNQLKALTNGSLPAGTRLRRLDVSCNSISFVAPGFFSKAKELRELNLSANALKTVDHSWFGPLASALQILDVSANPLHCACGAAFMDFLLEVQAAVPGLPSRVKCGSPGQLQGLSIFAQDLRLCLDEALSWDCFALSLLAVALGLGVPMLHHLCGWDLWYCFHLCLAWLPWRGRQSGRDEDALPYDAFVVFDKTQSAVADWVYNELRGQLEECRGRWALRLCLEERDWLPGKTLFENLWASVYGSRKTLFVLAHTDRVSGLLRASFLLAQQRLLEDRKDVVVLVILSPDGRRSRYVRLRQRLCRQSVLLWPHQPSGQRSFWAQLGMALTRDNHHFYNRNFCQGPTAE
Procedure, shortened: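 Agonists used: gardiquimod 7.5 μM (TLR7), R848 15.9 μM (TLR8), ODN2006 5 nM (TLR9), added after 30 min room-temperature compound pre-treatment (0.05 nM–50 μM) of receptor-overexpressing HEK-Blue cells. SEAP reporter (NF-κB/AP-1 driven) read after 22 h at 37 °C; inhibition scaled between agonist+DMSO and reference-inhibitor wells.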

Structure (SMILES) | IC50 (human TLR8) | IC50 (human TLR9)
COc1ccc(-c2[nH]c3ccc(C4CCN(C(=O)CN5CCCC(C(=O)NC6CCN(C(C)C)CC6)C5)CC4)cc3c2C(C)C)cc1OC (single isomer, unassigned) [Example 280, 1-(2-(4-(2-(3,4-dimethoxyphenyl)-3-isopropyl-1H-indol-5-yl)piperidin-1-yl)-2-oxoethyl)-N-(1-isopropylpiperidin-4-yl)piperidine-3-carboxamide] | 22 nM | 417 nM
COc1ccc(-c2[nH]c3ccc(C4CCN(C(=O)CN5CCCC(C(=O)NC6CCN(C(C)C)CC6)C5)CC4)cc3c2C(C)C)cc1OC (single isomer, unassigned) [Example 281, 1-(2-(4-(2-(3,4-dimethoxyphenyl)-3-isopropyl-1H-indol-5-yl)piperidin-1-yl)-2-oxoethyl)-N-(1-isopropylpiperidin-4-yl)piperidine-3-carboxamide] | 20 nM | 586 nM
COc1ccc(-c2[nH]c3ccc(C4CCNCC4O)cc3c2C(C)C)cc1OC (single isomer, unassigned) [Example 317, 4-(2-(3,4-dimethoxyphenyl)-3-isopropyl-1H-indol-5-yl)piperidin-3-ol 2,2,2-trifluoroacetate] | 82 nM | 4720 nM
COc1ccc(-c2[nH]c3ccc(C4CCNCC4O)cc3c2C(C)C)cc1OC (single isomer, unassigned) [Example 318, 4-(2-(3,4-dimethoxyphenyl)-3-isopropyl-1H-indol-5-yl)piperidin-3-ol 2,2,2-trifluoroacetate] | 6070 nM | 11200 nM
COc1ccc(-c2[nH]c3ccc(C4CCN(C5C[C@H]6CC[C@@H](C5)N6C)CC4)cc3c2C)cc1OC (stereo partly drawn) [Example 21, 2-(3,4-dimethoxyphenyl)-3-methyl-5-(1-((1R,5S)-8-methyl-8-azabicyclo[3.2.1]octan-3-yl)piperidin-4-yl)-1H-indole] | 242 nM | 83 nM
COc1ccc(-c2[nH]c3ccc(C4CCN(C5CCN(C6CC6)CC5)CC4)cc3c2C)cc1OC [Example 23, 5-(1′-cyclopropyl-[1,4′-bipiperidin]-4-yl)-2-(3,4-dimethoxyphenyl)-3-methyl-1H-indole] | 151 nM | 154 nM
COc1ccc(-c2[nH]c3ccc(C4CCN(C(=O)CN5CCCN(C(C)=O)CC5)CC4)cc3c2C(C)C)cc1OC [Example 222, 2-(4-acetyl-1,4-diazepan-1-yl)-1-(4-(2-(3,4-dimethoxyphenyl)-3-isopropyl-1H-indol-5-yl)piperidin-1-yl)ethan-1-one] | 67 nM | 6880 nM
COc1ccc(-c2[nH]c3ccc(C4CCN(C(=O)CN5CCOCC5)CC4)cc3c2C(C)C)cc1OC [Example 223, 1-(4-(2-(3,4-dimethoxyphenyl)-3-isopropyl-1H-indol-5-yl)piperidin-1-yl)-2-morpholinoethan-1-one] | 98 nM | ≥ 50000 nM
CCN(CC)C(=O)C1CCCN(CC(=O)N2CCC(c3ccc4[nH]c(-c5ccc(OC)c(OC)c5)c(C(C)C)c4c3)CC2)C1 (stereo not drawn) [Example 224, 1-(2-(4-(2-(3,4-dimethoxyphenyl)-3-isopropyl-1H-indol-5-yl)piperidin-1-yl)-2-oxoethyl)-N,N-diethylpiperidine-3-carboxamide] | 27 nM | 403 nM
COc1ccc(-c2[nH]c3ccc(C4CCN(C(=O)CN5CCCC(CO)C5)CC4)cc3c2C(C)C)cc1OC (stereo not drawn) [Example 226, 1-(4-(2-(3,4-dimethoxyphenyl)-3-isopropyl-1H-indol-5-yl)piperidin-1-yl)-2-(3-(hydroxymethyl)piperidin-1-yl)ethan-1-one] | 17 nM | 1420 nM
COc1ccc(-c2[nH]c3ccc(C4CCN(C(=O)CN(C)C(C)C)CC4)cc3c2C(C)C)cc1OC [Example 227, 1-(4-(2-(3,4-dimethoxyphenyl)-3-isopropyl-1H-indol-5-yl)piperidin-1-yl)-2-(isopropyl(methyl)amino) ethan-1-one] | 24 nM | 1730 nM
COc1ccc(-c2[nH]c3ccc(C4CCN(C(=O)CNCC(N)=O)CC4)cc3c2C(C)C)cc1OC [Example 228, 2-((2-(4-(2-(3,4-dimethoxyphenyl)-3-isopropyl-1H-indol-5-yl)piperidin-1-yl)-2-oxoethyl)amino)acetamide] | 118 nM | 15100 nM
COc1ccc(-c2[nH]c3ccc(C4CCN(C(=O)CN5CCN(CC(=O)NC(C)C)CC5)CC4)cc3c2C(C)C)cc1OC [Example 229, 2-(4-(2-(4-(2-(3,4-dimethoxyphenyl)-3-isopropyl-1H-indol-5-yl)piperidin-1-yl)-2-oxoethyl)piperazin-1-yl)-N-isopropylacetamide] | 43 nM | 4980 nM
COc1ccc(-c2[nH]c3ccc(C4CCN(C(=O)CNCCOCCO)CC4)cc3c2C(C)C)cc1OC [Example 230, 1-(4-(2-(3,4-dimethoxyphenyl)-3-isopropyl-1H-indol-5-yl)piperidin-1-yl)-2-((2-(2-hydroxyethoxy)ethyl)amino)ethan-1-one] | 18 nM | 2200 nM
COc1ccc(-c2[nH]c3ccc(C4CCN(C(=O)CN[C@H](CO)CC(C)C)CC4)cc3c2C(C)C)cc1OC [Example 231, (S)-1-(4-(2-(3,4-dimethoxyphenyl)-3-isopropyl-1H-indol-5-yl)piperidin-1-yl)-2-((1-hydroxy-4-methylpentan-2-yl)amino)ethan-1-one] | 63 nM | 1930 nM
COc1ccc(-c2[nH]c3ccc(C4CCN(C(=O)CN[C@H]5CC[C@H](N)CC5)CC4)cc3c2C(C)C)cc1OC [Example 232, 2-(((1r,4r)-4-aminocyclohexyl)amino)-1-(4-(2-(3,4-dimethoxyphenyl)-3-isopropyl-1H-indol-5-yl)piperidin-1-yl)ethan-1-one] | 169 nM | 307 nM
CCC(CO)NCC(=O)N1CCC(c2ccc3[nH]c(-c4ccc(OC)c(OC)c4)c(C(C)C)c3c2)CC1 (stereo not drawn) [Example 233, 1-(4-(2-(3,4-dimethoxyphenyl)-3-isopropyl-1H-indol-5-yl)piperidin-1-yl)-2-((1-hydroxybutan-2-yl)amino)ethan-1-one] | 27 nM | 877 nM
COc1ccc(-c2[nH]c3ccc(C4CCN(C(=O)CN[C@@H](CO)CC(C)C)CC4)cc3c2C(C)C)cc1OC [Example 234, (R)-1-(4-(2-(3,4-dimethoxyphenyl)-3-isopropyl-1H-indol-5-yl)piperidin-1-yl)-2-((1-hydroxy-4-methylpentan-2-yl)amino) ethan-1-one] | 63 nM | 1880 nM
